Laboratory results taken from US5196445A, “Heteroaryl-3-oxo-propanenitrile derivatives useful in the treatment of rheumatoid arthritis and other autoimmune diseases” (Farmitalia Carlo Erba Srl, priority 1989, dated 1993).
Where two headings read alike, the source gives them in different places.

Experiments:
[1] = tested on: adjuvant arthritis in rats; test: Mycobacterium smegmatis induced adjuvant arthritis in rats (contralateral/left hind paw oedema, systemic phase); type: in vivo, male Lewis rats; details: 10 mg/kg i.p.; for inhibition in vivo at 10 mg/kg: Mycolicibacterium smegmatis, ip, left hind paw oedema; for Oedema volume ± S.E., day 18 / Oedema volume ± S.E., day 21 / Oedema volume ± S.E., day 25: left hind paw, systemic phase
Protocol: Mycobacterium smegmatis induced adjuvant arthritis in rats Adjuvant arthritis is induced in groups of 10-30 male Lewis rats, weighing 150 g, by injecting 75 μg of M. smegmatis in 50 μl of mineral oil into the plantar surface of the right hind foot pad. The test compounds are administered at 10 mg/kg i.p.), 5 days a week for 4 weeks, starting on the same day of the mycobacterium injection. The volume of the controlateral (systematic phase) hind foot pad is measured pletismographically on days 18, 21 and 25.

[2] = approximate acute toxicity (LD50) in the mouse, per os, single administration of increasing doses; details: in vivo, po, measured on the seventh day after treatment
Excerpt: In view of their high biological activity and low toxicity the compounds of the invention can be safely used in medicine. For example, the approximate acute toxicity (LD50) in the mouse of the compounds 2-cyano-3-(1,4-dihydro-1-phenyl-[1]-benzopyrano[4,3-c]pyrazol-3-yl)-3-oxo- N-phenyl-propanamide, and 2-cyano-3-(1,4-dihydro-1-phenyl-[1]-benzothiopyrano[4,3-c]pyrazol-3-yl)-3- oxo-N-phenyl-propanamide, determined per os with single administration of increasing doses and measured on the seventh day after the day of treatment, is higher than 800 mg/kg. Analogous toxocity data have been found for the other compounds of the invention.

[3] = 432 h, Table 2, day 18, read-out: % inhibition vs. controls, day 18
[4] = 504 h, Table 2, day 21, read-out: % inhibition vs. controls, day 21
[5] = 600 h, Table 2, day 25, read-out: % inhibition vs. controls, day 25
[6] = 432 h, Table 1, day 18, read-out: % inhibition vs. controls, day 18
[7] = 504 h, Table 1, day 21, read-out: % inhibition vs. controls, day 21
[8] = 600 h, Table 1, day 25, read-out: % inhibition vs. controls, day 25

Question: With `N#CC(C(=O)Nc1ccccc1)C(=O)c1nn(-c2ccccc2)c2c1Cc1c(CN3CCOCC3)cccc1-2` (centres unmarked) [FCE 26626, 2-cyano-3-(1,4-dihydro-5-morpholinomethyl-1-phenyl-indeno[1,2-c]pyrazol-3-yl)-3-oxo-N-phenyl-propanamide] as the molecule, how does the inhibition in vivo at 10 mg/kg [1, 3] read?
Answer: The inhibition in vivo at 10 mg/kg was 57%.

Question: And the inhibition in vivo at 10 mg/kg [1, 4]?
Answer: The inhibition in vivo at 10 mg/kg was 47%.

Question: And the inhibition in vivo at 10 mg/kg [1, 5]?
Answer: Its inhibition in vivo at 10 mg/kg is 54%.

Question: And the “Oedema volume ± S.E., day 18” value ([1]; Table 2, day 18)?
Answer: Its value is 425 ± 173 mm^3.

Question: What about the “Oedema volume ± S.E., day 21” value ([1]; Table 2, day 21) of the same molecule?
Answer: Its value is 587 ± 222 mm^3.

Question: And the “Oedema volume ± S.E., day 25” value ([1]; Table 2, day 25)?
Answer: The value was 562 ± 234 mm^3.

Question: For `N#CC(C(=O)Nc1ccccc1)C(=O)c1nn(-c2ccccc2)c2c1COc1ccccc1-2` (centres unmarked) [FCE 25158, 2-cyano-3-(1,4-dihydro-1-phenyl-[1]-benzopyrano[4,3-c]pyrazol-3-yl)-3-oxo-N-phenyl-propanamide], which inhibition in vivo at 10 mg/kg [1, 3] is on record?
Answer: Its inhibition in vivo at 10 mg/kg is 30%.

Question: And the inhibition in vivo at 10 mg/kg [1, 4]?
Answer: Its inhibition in vivo at 10 mg/kg is 38%.

Question: And the inhibition in vivo at 10 mg/kg [1, 5]?
Answer: The inhibition in vivo at 10 mg/kg was 41%.

Question: What about the “Oedema volume ± S.E., day 18” value ([1]; Table 2, day 18) of the same molecule?
Answer: The value was 700 ± 198 mm^3.

Question: And the “Oedema volume ± S.E., day 21” value ([1]; Table 2, day 21)?
Answer: The value was 683 ± 174 mm^3.

Question: And the “Oedema volume ± S.E., day 25” value ([1]; Table 2, day 25)?
Answer: Its value is 717 ± 182 mm^3.

Question: What about the LD50 at 168 h [2] of the same molecule?
Answer: Its LD50 at 168 h is greater than 800 mg/kg.

Question: Which results are given for `N#CC(C(=O)Nc1ccc(F)cc1)C(=O)c1nn(-c2ccc(F)cc2)c2c1Cc1ccccc1-2` (centres unmarked) [FCE 26317, 2-cyano-N-(4-fluoro-phenyl)-3-[1-(4-fluoro-phenyl)-1,4-dihydro-indeno[1,2-c]pyrazol-3-yl]-3-oxo-propanamide]?
Answer: inhibition in vivo at 10 mg/kg [1, 3]: 37%; inhibition in vivo at 10 mg/kg [1, 4]: 38%; inhibition in vivo at 10 mg/kg [1, 5]: 44%; Oedema volume ± S.E., day 18 ([1]; Table 2, day 18): 629 ± 347 mm^3; Oedema volume ± S.E., day 21 ([1]; Table 2, day 21): 686 ± 393 mm^3; Oedema volume ± S.E., day 25 ([1]; Table 2, day 25): 683 ± 417 mm^3

Question: What does the source list for `N#CC(C(=O)Nc1ccccc1)C(=O)c1nn(-c2ccccc2)c2c1CSc1ccccc1-2` (centres unmarked) [FCE 24578, 2-cyano-3-(1,4-dihydro-1-phenyl-[1]-benzothiopyrano[4,3-c]pyrazol-3-yl)-3-oxo-N-phenyl-propanamide]?
Answer: inhibition in vivo at 10 mg/kg [1, 6]: 75%; inhibition in vivo at 10 mg/kg [1, 7]: 65%; inhibition in vivo at 10 mg/kg [1, 8]: 68%; Oedema volume ± S.E., day 18 ([1]; Table 1, day 18): 310 ± 180 mm^3; Oedema volume ± S.E., day 21 ([1]; Table 1, day 21): 470 ± 215 mm^3; Oedema volume ± S.E., day 25 ([1]; Table 1, day 25): 460 ± 241 mm^3; LD50 at 168 h [2]: > 800 mg/kg

Question: With `N#CC(C(=O)Nc1ccccc1)C(=O)c1nn(-c2ccccc2)c2c1Cc1ccccc1-2` (centres unmarked) [FCE 25276, 2-cyano-3-(1,4-dihydro-1-phenyl-indeno[1,2-c]pyrazol-3-yl)-3-oxo-N-phenyl-propanamide] as the molecule, how does the inhibition in vivo at 10 mg/kg [1, 3] read?
Answer: The inhibition in vivo at 10 mg/kg was 41%.

Question: And the inhibition in vivo at 10 mg/kg [1, 4]?
Answer: The inhibition in vivo at 10 mg/kg was 47%.

Question: And the inhibition in vivo at 10 mg/kg [1, 5]?
Answer: The inhibition in vivo at 10 mg/kg was 58%.

Question: What about the “Oedema volume ± S.E., day 18” value ([1]; Table 2, day 18) of the same molecule?
Answer: The value was 587 ± 233 mm^3.

Question: And the “Oedema volume ± S.E., day 21” value ([1]; Table 2, day 21)?
Answer: The value was 587 ± 254 mm^3.

Question: And the “Oedema volume ± S.E., day 25” value ([1]; Table 2, day 25)?
Answer: Its value is 512 ± 304 mm^3.

Question: For `CC(C)(C)OC(=O)c1cccc2c1SCc1c(C(=O)C(C#N)C(=O)Nc3ccccc3)nn(-c3ccccc3)c1-2` (centres unmarked) [FCE 26674, 3-(6-tert-butoxycarbonyl-1,4-dihydro-1-phenyl-[1]-benzothiopyrano[4,3-c]pyrazol-3-yl)-2-cyano-3-oxo-N-phenyl-propanamide], which inhibition in vivo at 10 mg/kg [1, 3] is on record?
Answer: The inhibition in vivo at 10 mg/kg was 24%.

Question: What about the inhibition in vivo at 10 mg/kg [1, 4] of the same molecule?
Answer: The inhibition in vivo at 10 mg/kg was 40%.

Question: What about the inhibition in vivo at 10 mg/kg [1, 5] of the same molecule?
Answer: Its inhibition in vivo at 10 mg/kg is 34%.

Question: And the “Oedema volume ± S.E., day 18” value ([1]; Table 2, day 18)?
Answer: The value was 757 ± 209 mm^3.

Question: What about the “Oedema volume ± S.E., day 21” value ([1]; Table 2, day 21) of the same molecule?
Answer: Its value is 662 ± 182 mm^3.

Question: And the “Oedema volume ± S.E., day 25” value ([1]; Table 2, day 25)?
Answer: The value was 812 ± 226 mm^3.

Question: Which inhibition in vivo at 10 mg/kg [1, 6] does the source give for `N#CC(C(=O)Nc1ccccc1)C(=O)c1nn(-c2ccccc2)c2c1CCc1ccccc1-2` (centres unmarked) [FCE 25161, 2-cyano-3-(4,5-dihydro-1-phenyl-[1]-benz[g]indazol-3-yl)-3-oxo-N-phenyl-propanamide] here?
Answer: Its inhibition in vivo at 10 mg/kg is 50%.

Question: What about the inhibition in vivo at 10 mg/kg [1, 7] of the same molecule?
Answer: The inhibition in vivo at 10 mg/kg was 49%.

Question: What about the inhibition in vivo at 10 mg/kg [1, 8] of the same molecule?
Answer: The inhibition in vivo at 10 mg/kg was 49%.

Question: And the “Oedema volume ± S.E., day 18” value ([1]; Table 1, day 18)?
Answer: The value was 665 ± 91 mm^3.

Question: And the “Oedema volume ± S.E., day 21” value ([1]; Table 1, day 21)?
Answer: The value was 675 ± 96 mm^3.

Question: And the “Oedema volume ± S.E., day 25” value ([1]; Table 1, day 25)?
Answer: The value was 685 ± 93 mm^3.

Question: Which inhibition in vivo at 10 mg/kg [1, 6] does the source give for `N#CC(C(=O)NCc1ccccc1)C(=O)c1nn(-c2ccccc2)c2c1CSc1ccccc1-2` (centres unmarked) [FCE 25324, N-benzyl-2-cyano-3-(1,4-dihydro-1-phenyl-[1]-benzothiopyrano [4,3-c]pyrazol-3-yl)-3-oxo-propanamide] here?
Answer: Its inhibition in vivo at 10 mg/kg is 51%.

Question: And the inhibition in vivo at 10 mg/kg [1, 7]?
Answer: Its inhibition in vivo at 10 mg/kg is 57%.

Question: And the inhibition in vivo at 10 mg/kg [1, 8]?
Answer: The inhibition in vivo at 10 mg/kg was 60%.

Question: What about the “Oedema volume ± S.E., day 18” value ([1]; Table 1, day 18) of the same molecule?
Answer: Its value is 565 ± 72 mm^3.

Question: What about the “Oedema volume ± S.E., day 21” value ([1]; Table 1, day 21) of the same molecule?
Answer: The value was 575 ± 97 mm^3.

Question: And the “Oedema volume ± S.E., day 25” value ([1]; Table 1, day 25)?
Answer: Its value is 545 ± 78 mm^3.

Question: With `N#CC(C(=O)Nc1ccccc1)C(=O)c1nn(-c2ccccc2)c2c1Cc1ccc(F)cc1-2` (centres unmarked) [FCE 26676, 2-cyano-3-(7-fluoro-1,4-dihydro-1-phenyl-indeno[1,2-c]pyrazol-3-yl)-3-oxo-N-phenyl-propanamide] as the molecule, how does the inhibition in vivo at 10 mg/kg [1, 3] read?
Answer: The inhibition in vivo at 10 mg/kg was 65%.

Question: And the inhibition in vivo at 10 mg/kg [1, 4]?
Answer: The inhibition in vivo at 10 mg/kg was 54%.

Question: And the inhibition in vivo at 10 mg/kg [1, 5]?
Answer: The inhibition in vivo at 10 mg/kg was 50%.

Question: What about the “Oedema volume ± S.E., day 18” value ([1]; Table 2, day 18) of the same molecule?
Answer: Its value is 350 ± 127 mm^3.

Question: What about the “Oedema volume ± S.E., day 21” value ([1]; Table 2, day 21) of the same molecule?
Answer: Its value is 512 ± 203 mm^3.

Question: And the “Oedema volume ± S.E., day 25” value ([1]; Table 2, day 25)?
Answer: The value was 612 ± 225 mm^3.
